These results are taken from paper PMC6887723, “Design and Synthesis of 4-(Heterocyclic Substituted Amino)-1H-Pyrazole-3-Carboxamide Derivatives and Their Potent Activity against Acute Myeloid Leukemia (AML)” (International Journal of Molecular Sciences, 2019).

For one data set, the target named is T1, FLT3 (ITD)-W51 (Homo sapiens, UniProt P36888, DUP595-601).
T1 construct: purchased Reaction Biology Corp
The data set can be described thus: Hot-Spot kinase profiling. It is filed as biochemical. The procedure:
(§1) Activities of kinases were determined using Hot-SpotSM kinase assay which was performed by Reaction Biology Corp. (Malvern PA, USA) as described previously.

For the next data set, the target named is T2, SYK (Homo sapiens, UniProt P43405).
T2 construct: purchased Reaction Biology Corp. (Malvern PA, USA)
The experiment in a line: Hot-Spot kinase profiling. The format is biochemical. The conditions noted are these: read-out: % Enzyme Activity (Relative to DMSO Controls) SYK. As to the method:
as §1

The next data set has as its target FLT3 (ITD)-F691L (Homo sapiens, UniProt P36888, F691L/ITD). The experiment in a line: Hot-Spot kinase profiling. It is filed as biochemical. Particulars: Table 5 kinase profiling. As to the method: as §1
The target of another data set is T3, CDK3/cyclin E (Homo sapiens, UniProt Q00526).
T3 construct: purchased Reaction Biology Corp
The experiment in a line: Hot-Spot kinase profiling. The format is biochemical. The procedure:
as §1

Data set [1] deals with phosphorylation of STAT5/AKT/ERK. The data set can be described thus: Western blot, phosphorylation of STAT5/AKT/ERK in MV4-11 cells. The format is cell-based, human. Particulars: MV4-11, 4 h, 1 μM. As to the method: Analysis of pFLT3, pSTAT5, pERK, pAKT, and pRb in vitro: to determine the levels of pFLT3, pSTAT5, pERK, pAKT, and pRb, cells were seeded in a 6-well cell culture plate at a density of 400,000 cells per well for MV4-11 in a total volume of 1800 μL and incubated overnight in medium containing 10% fetal bovine serum (Life Technologies, Rockville, MD, USA). Then 200 μL of serially diluted compounds were added to each well the next day. Cell lysates were harvested after 4 h and pFLT3, pSTAT5, pERK, pAKT, or pRb were quantified using assay kits for FLT3/Phospho-FLT3Tyr589/591, pSTAT5 (Tyr694)/total STAT5, pRb (Ser807)/total Rb (Nanjin keyGen Biotech Company, Nanjing, China) following the manufacturer’s protocols.
A general note: Immunoblotting shows a protein as a band on a membrane.

In a further data set the target is FLT3 mutants. The data set can be described thus: Hot-Spot kinase profiling, FLT3 mutants together. It is filed as biochemical. Particulars: eight FLT3 mutants, bound for all; read-out: IC50 against FLT3 mutants. The procedure: as §1

T3 sequence (Q00526 whole entry): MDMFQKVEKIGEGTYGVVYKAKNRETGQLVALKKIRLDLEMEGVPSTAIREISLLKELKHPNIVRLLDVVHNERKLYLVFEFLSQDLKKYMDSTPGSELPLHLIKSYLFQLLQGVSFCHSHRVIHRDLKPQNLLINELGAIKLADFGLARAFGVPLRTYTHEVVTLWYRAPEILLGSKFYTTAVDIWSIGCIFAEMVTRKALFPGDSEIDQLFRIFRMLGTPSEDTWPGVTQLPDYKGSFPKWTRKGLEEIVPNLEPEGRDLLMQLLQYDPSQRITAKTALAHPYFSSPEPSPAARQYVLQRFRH
T3 sequence (P24864 whole entry partner): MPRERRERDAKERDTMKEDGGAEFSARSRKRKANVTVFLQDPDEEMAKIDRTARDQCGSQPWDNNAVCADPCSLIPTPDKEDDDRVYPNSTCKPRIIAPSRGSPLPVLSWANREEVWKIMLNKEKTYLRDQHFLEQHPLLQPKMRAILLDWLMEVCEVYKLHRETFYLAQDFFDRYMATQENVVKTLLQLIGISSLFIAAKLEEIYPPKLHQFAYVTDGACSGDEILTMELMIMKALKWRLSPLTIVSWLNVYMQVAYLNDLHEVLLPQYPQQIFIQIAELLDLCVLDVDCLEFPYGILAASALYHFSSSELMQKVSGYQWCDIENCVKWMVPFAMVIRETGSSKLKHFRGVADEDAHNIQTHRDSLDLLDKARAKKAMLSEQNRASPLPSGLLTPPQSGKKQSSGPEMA
T1 sequence (P36888 with tags, fused parts or gaps DUP595-601 limits assumed): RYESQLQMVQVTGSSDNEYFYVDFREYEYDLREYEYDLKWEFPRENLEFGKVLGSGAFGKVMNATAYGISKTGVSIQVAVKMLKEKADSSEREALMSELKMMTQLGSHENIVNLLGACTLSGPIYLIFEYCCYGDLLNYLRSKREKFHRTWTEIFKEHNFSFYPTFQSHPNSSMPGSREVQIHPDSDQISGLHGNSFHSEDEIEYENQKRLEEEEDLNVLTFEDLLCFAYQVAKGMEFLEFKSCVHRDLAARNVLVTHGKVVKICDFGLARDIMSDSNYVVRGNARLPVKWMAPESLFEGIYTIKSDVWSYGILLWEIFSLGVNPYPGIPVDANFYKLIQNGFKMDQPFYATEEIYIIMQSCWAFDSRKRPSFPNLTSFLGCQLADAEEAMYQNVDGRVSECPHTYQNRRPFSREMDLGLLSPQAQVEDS
FLT3 (ITD)-F691L, sequence (P36888 564-993 F691L): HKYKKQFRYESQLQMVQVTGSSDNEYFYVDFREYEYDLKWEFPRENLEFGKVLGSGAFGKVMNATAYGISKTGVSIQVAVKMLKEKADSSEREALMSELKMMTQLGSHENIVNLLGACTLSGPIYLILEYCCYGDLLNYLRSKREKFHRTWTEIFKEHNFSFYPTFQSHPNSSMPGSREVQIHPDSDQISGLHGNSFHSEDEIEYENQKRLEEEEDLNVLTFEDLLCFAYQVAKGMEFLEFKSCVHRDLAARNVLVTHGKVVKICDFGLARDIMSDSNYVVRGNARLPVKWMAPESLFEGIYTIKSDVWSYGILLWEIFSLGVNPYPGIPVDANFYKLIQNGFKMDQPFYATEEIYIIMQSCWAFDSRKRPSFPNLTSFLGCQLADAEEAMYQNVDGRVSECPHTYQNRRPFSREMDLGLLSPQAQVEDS

On to `O=C(Nc1ccc(N2CCNCC2)cc1)c1n[nH]cc1Nc1ncnc2sc3c(c12)CCC3` [Compound 8t], for which the melting point (in general, the temperature, or range, at which the solid turns liquid) lay within 266 to 268 °C. In addition, at FLT3 (ITD)-W51 (0.15 μM, read-out: % Enzyme Activity (Relative to DMSO Controls) FLT3 (ITD)-W51), the remaining activity at 0.15 µM is 0.51%. In addition, at FLT3 (ITD)-W51 (Table 5 kinase profiling), the IC50 – broadly, the concentration that gives 50% inhibition – is 0.94 ± 0.09 nM. Moreover, the remaining activity at 0.15 µM at SYK was 35.4%. At FLT3 (ITD)-F691L, this compound yielded an IC50 of 0.6 ± 0.01 nM. The remaining activity at 0.15 µM at CDK3/cyclin E (0.15 μM, read-out: % Enzyme Activity (Relative to DMSO Controls) CDK3/cyclin E) was found to be 5.94%. This compound also gave a half-inhibitory concentration (IC50) against CDK3/cyclin E (Table 5 kinase profiling) of 6.88 ± 0.25 nM. Further, the “phosphorylation of STAT5/AKT/ERK” value in data set [1] is on record as “completely blocked”. The IC50 on FLT3 mutants is under 5 nM.
